The source of these data is patent publication US20020028938A1, “Prostaglandin endoperoxide H synthase biosynthesis inhibitors” (priority 1997, published 2002).

Each structure is given as a SMILES string.

Data set [1] addresses T1, recombinant human Cox-2 (r-hu Cox-2) (Homo sapiens, UniProt P35354).
T1 construct: made in house; host or cells: baculovirus/Sf9 insect cells (microsomes)
T1 sequence (P35354 18-604): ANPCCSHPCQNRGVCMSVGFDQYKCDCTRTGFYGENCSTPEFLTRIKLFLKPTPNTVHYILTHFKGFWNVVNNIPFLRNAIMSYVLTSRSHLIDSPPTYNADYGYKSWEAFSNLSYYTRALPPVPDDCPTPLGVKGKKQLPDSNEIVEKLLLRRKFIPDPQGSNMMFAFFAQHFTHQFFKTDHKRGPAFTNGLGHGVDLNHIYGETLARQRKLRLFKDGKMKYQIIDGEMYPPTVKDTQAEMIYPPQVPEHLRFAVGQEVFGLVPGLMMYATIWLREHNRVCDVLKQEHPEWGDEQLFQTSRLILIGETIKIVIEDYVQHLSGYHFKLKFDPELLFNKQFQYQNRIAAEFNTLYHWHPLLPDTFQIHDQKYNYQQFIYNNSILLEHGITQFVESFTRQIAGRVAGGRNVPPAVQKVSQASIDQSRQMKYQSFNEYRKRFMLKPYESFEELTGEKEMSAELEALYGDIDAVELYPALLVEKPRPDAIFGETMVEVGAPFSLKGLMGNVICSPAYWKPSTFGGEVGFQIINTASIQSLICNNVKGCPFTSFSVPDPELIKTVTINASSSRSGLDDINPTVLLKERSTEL
Description: Recombinant human PGHS-2 enzyme assay (RHUCX2). The format is biochemical. The following applies: read-out: RHUCX2 IC50 (parenthetical value). The gist of the method: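 IC50 values come from linear regression of percent inhibition, itself calculated against the mean of untreated controls. The underlying signal is PGE2, determined by EIA after a brief room-temperature reaction (2.5 minutes) terminated with acid and then base-neutralized.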

For data set [2], the target named is T2, human amnionic whole cell cyclooxygenase-2 (WISH cells) (Homo sapiens, UniProt P35354).
T2 construct: endogenous in cells; host or cells: human amnionic WISH cells, induced with IL-1beta
T2 sequence (P35354 18-604): T1 sequence (P35354 18-604)
Briefly: IL-1β induced PGE2 production in WISH cells. The format is cell-based. The following applies: read-out: Wish IC50 (parenthetical value). The method in brief: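 PGE2 was quantified by enzyme immunoassay (optical density read) against standards made up in the matching medium. WISH cells at 80% confluence, washed and placed in serum-free Neuman-Tytell medium, received 5 ng/ml IL-1β plus test compound or DMSO vehicle (0.01% v/v).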

Data set [3] concerns prostaglandin biosynthesis in vivo (pleural lavage eicosanoids). Description: Rat carrageenan pleural inflammation (CIP) model. The method in brief:
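Male adrenalectomized Sprague-Dawley rats were dosed orally with compound suspended in PEG 400, 30 minutes before intrapleural 2% lambda carrageenan. Pleural lavage collected 4 hours later went into methanol (66% final), and eicosanoids were measured by EIA. Inhibition relative to control mean; ED50 by linear regression.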

For data set [4], the system named is air pouch prostaglandin biosynthesis (Cox-2). Briefly: Carrageenan induced air pouch prostaglandin biosynthesis model (CAP). The format is in vivo, rat. The following applies: 4 h; 3 mpk, rat; read-out: CAP % Inhib. @ 3 mpk. The method in brief: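 Male Sprague Dawley rats with dorsal air pouches (20 mL air day 0, 10 mL day 3) received 0.2% lambda carrageenan in saline into the pouch on day 7. Compounds dosed at 0.1 to 10 mg/kg 30 min before carrageenan; pouch lavaged 4 h later, prostaglandins measured by EIA. Percent inhibition versus control mean; ED50 by linear regression.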

In data set [5] the test system is carrageenan induced paw edema. Briefly: Carrageenan induced paw edema (CPE) in rats. The format is in vivo. The following applies: 10 mpk oral, rat, 3 hours after carrageenan; read-out: CPE % Inhib. @ 10 mpk. The method in brief:
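Male Sprague-Dawley rats (170–190 g) dosed orally in PEG 400, 1 h before subplantar 0.1 ml 1% lambda carrageenan in right hindpaw. Plethysmographic paw volume at 0 and 3 h; edema as difference, % inhibition versus control mean (±SEM), Dunnett's test, ED50 by linear regression.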

`NS(=O)(=O)c1ccc(-c2cnn(-c3ccc(F)cc3)c(=O)c2-c2ccc(F)cc2)cc1` [Example 89] yielded a melting point of 213 to 216 °C. Moreover, the IC50 in data set [1] was 350 nM. The IC50 in data set [2] was found to be 50 nM. In addition, the inhibition in vivo at 10 mg/kg in data set [3] (4 h, 10 mpk oral, read-out: CIP % Inhib. @ 10 mpk) came to 68.3%. The same compound registered an ED50 in data set [3] (oral) of 3.4 mg/kg. The inhibition in vivo at 3 mg/kg in data set [4] is 94%. The inhibition in vivo at 10 mg/kg in data set [5] was determined as 45.5%.
